In general, IC50 refers to the concentration that inhibits the measured activity by half.

The structures appear in SMILES notation. Bridge positions count the residues as written; N and C are the ends. Square brackets hold non-standard residues; d marks the D form. Peptide text beside a SMILES is read from it. * marks the point of attachment. ξ: configuration not given here. Phe(4-COOH) = N[C@@H](Cc1ccc(C(=O)O)cc1)C(=O)O; Bip = N[C@@H](Cc1ccc(-c2ccccc2)cc1)C(=O)O; Phe(3-OMe) = COc1cccc(C[C@H](N)C(=O)O)c1; Phe(4-NH2) = Nc1ccc(C[C@H](N)C(=O)O)cc1; Phe(3-Me) = Cc1cccc(C[C@H](N)C(=O)O)c1; Phe(4-F) = N[C@@H](Cc1ccc(F)cc1)C(=O)O; Val(3-OH) = CC(C)(O)[C@H](N)C(=O)O; h4Pal = N[C@@H](CCc1ccncc1)C(=O)O; hArg = N=C(N)NCCCC[C@H](N)C(=O)O; 4Pal = N[C@@H](Cc1ccncc1)C(=O)O; Cha = N[C@@H](CC1CCCCC1)C(=O)O; Cit = NC(=O)NCCC[C@H](N)C(=O)O; Ile(3ξ) = CCC(C)[C@H](N)C(=O)O; Thr(3ξ) = CC(O)[C@H](N)C(=O)O; Dap(Me) = CNC[C@H](N)C(=O)O; Carboxymethyl = O=C(O)C*; NMeA = CN[C@@H](C)C(=O)O; Nle = CCCC[C@H](N)C(=O)O; Orn = NCCC[C@H](N)C(=O)O; Dab = NCC[C@H](N)C(=O)O; Dap = NC[C@H](N)C(=O)O

T1 sequence (Q15116 25-288): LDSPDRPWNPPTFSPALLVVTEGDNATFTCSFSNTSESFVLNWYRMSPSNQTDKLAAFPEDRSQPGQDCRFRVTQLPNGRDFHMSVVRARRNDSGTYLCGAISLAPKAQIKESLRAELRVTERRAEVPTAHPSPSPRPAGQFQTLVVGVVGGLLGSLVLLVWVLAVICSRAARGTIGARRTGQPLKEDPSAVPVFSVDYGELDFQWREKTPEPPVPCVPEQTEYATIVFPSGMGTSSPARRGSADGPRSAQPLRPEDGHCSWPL

The test addresses T1, PE-labeled human PD-L1-Ig binding to Jurkat cell line over-expressing human PD-1 (Jurkat-PD-1) (Homo sapiens, UniProt Q15116).
T1 construct: expressed in transfected cells; host or cells: Jurkat
The test is described as follows: Jurkat-PD-1 Cell Binding High-Content Screening Assay (CBA): Method 1. The settings on record: Jurkat-hPD-1 cells, PE-labeled PD-L1-Ig 20 nM final; read-out: Jurkat HPDL1 PD1 IC50 (uM) (Method 1).
Turning to `CCC(C)[C@@H]1NC(=O)[C@H](Cc2ccc(-c3ccccc3)cc2)NC(=O)[C@H](C(C)C)NC(=O)[C@H](Cc2c[nH]c3ccccc23)NC(=O)[C@H](CC(=O)O)NC(=O)[C@H](Cc2ccc(OCC(=O)O)cc2)NC(=O)[C@H](Cc2cnc[nH]2)NC(=O)CSC[C@@H](C(=O)N[C@@H](CCN)C(N)=O)NC(=O)[C@H](CO)NC(=O)[C@H](C(C)(C)O)NC(=O)[C@H](CC2CCCCC2)NC(=O)[C@H](CCN)NC(=O)[C@@H](CC(C)C)NC(=O)[C@H](C)N(C)C1=O` (stereo partly drawn) [Compound 2204] ({CH2CO}-HY(Carboxymethyl)DWV[Bip][Ile(3ξ)][NMeA][dL][Dab][Cha][Val(3-OH)]SC[Dab]-NH2; thioether N-14), the IC50 came to 0.01 µM.

With `CC(C)C[C@@H]1NC(=O)[C@H](CCCCN)NC(=O)[C@@H](CC(C)C)NC(=O)[C@H](C)N(C)C(=O)[C@H](CCCNC(=N)N)NC(=O)[C@H](Cc2ccc(-c3ccccc3)cc2)NC(=O)[C@H](C(C)C)NC(=O)[C@H](Cc2c[nH]c3ccccc23)NC(=O)[C@H](CC(=O)O)NC(=O)[C@H](Cc2ccc(O)cc2)NC(=O)[C@H](CC(N)=O)NC(=O)CSC[C@@H](C(=O)N[C@@H](CCC(=O)O)C(N)=O)NC(=O)[C@H]([C@@H](C)O)NC(=O)[C@H](C(C)C)NC1=O` [Compound 1173] ({CH2CO}-NYDWV[Bip]R[NMeA][dL]KLVTCE-NH2; thioether N-14), the IC50 is 0.22 µM.

As for `Cc1cccc(C[C@@H]2NC(=O)[C@H](CC(=O)O)NC(=O)[C@H](Cc3ccc(OCC(=O)O)cc3)NC(=O)[C@H](Cc3ccc(F)cc3)NC(=O)CSC[C@@H](C(=O)N[C@@H](CCN)C(N)=O)NC(=O)[C@H](CCC(=O)O)NC(=O)[C@H](C(C)(C)O)NC(=O)[C@H](CC3CCCCC3)NC(=O)[C@H](CCN)NC(=O)[C@@H](CC(C)C)NC(=O)[C@H](C)N(C)C(=O)[C@H](Cc3ccc(OCC(=O)O)cc3)NC(=O)[C@H](Cc3ccc(-c4ccccc4)cc3)NC(=O)[C@H](Cc3ccc(OCC(=O)O)cc3)NC2=O)c1` [Compound 2200] ({CH2CO}-[Phe(4-F)]Y(Carboxymethyl)D[Phe(3-Me)]Y(Carboxymethyl)[Bip]Y(Carboxymethyl)[NMeA][dL][Dab][Cha][Val(3-OH)]EC[Dab]-NH2; thioether N-14), the IC50 was determined as 0.01 µM. The figure for `CNC[C@@H]1NC(=O)CSC[C@@H](C(=O)N[C@@H](C)C(N)=O)NC(=O)[C@H](C(C)O)NC(=O)[C@H](C(C)C)NC(=O)[C@H](CC(C)C)NC(=O)[C@H](CCN)NC(=O)[C@@H](CC(C)C)NC(=O)[C@H](C)N(C)C(=O)[C@H](C(C)C)NC(=O)[C@H](Cc2ccc(-c3ccccc3)cc2)NC(=O)[C@H](C(C)C)NC(=O)[C@H](Cc2c[nH]c3ccccc23)NC(=O)[C@H](CC(=O)O)NC(=O)[C@H](Cc2ccc(O)cc2)NC1=O` (stereo partly drawn) [Compound 2041] ({CH2CO}-[Dap(Me)]YDWV[Bip]V[NMeA][dL][Dab]LV[Thr(3ξ)]CA-NH2; thioether N-14) is 0.02 µM; for `COc1cccc(C[C@@H]2NC(=O)[C@H](CC(=O)O)NC(=O)[C@H](Cc3ccc(C(=O)O)cc3)NC(=O)[C@H](CN)NC(=O)CSC[C@@H](C(=O)N[C@@H](C)C(N)=O)NC(=O)[C@H]([C@@H](C)O)NC(=O)[C@H](C(C)C)NC(=O)[C@H](CC(C)C)NC(=O)[C@H](CCN)NC(=O)[C@@H](CC(C)C)NC(=O)[C@H](C)N(C)C(=O)[C@H](CCCNC(=N)N)NC(=O)[C@H](Cc3ccc(-c4ccccc4)cc3)NC(=O)[C@H](C(C)C)NC2=O)c1` [Compound 1460] ({CH2CO}-[Dap][Phe(4-COOH)]D[Phe(3-OMe)]V[Bip]R[NMeA][dL][Dab]LVTCA-NH2; thioether N-14) it is 0.02 µM.

Turning to `CC(C)C[C@@H]1NC(=O)[C@H](CCCNC(=N)N)NC(=O)[C@@H](C)NC(=O)[C@H](C)N(C)C(=O)[C@H](CCCNC(=N)N)NC(=O)[C@H](Cc2ccc(-c3ccccc3)cc2)NC(=O)[C@H](C(C)C)NC(=O)[C@H](Cc2c[nH]c3ccccc23)NC(=O)[C@H](CC(=O)O)NC(=O)[C@H](Cc2ccc(O)cc2)NC(=O)[C@H](Cc2ccccc2)NC(=O)CSC[C@@H](C(=O)NCC(N)=O)NC(=O)[C@H](CO)NC(=O)[C@H](C(C)C)NC1=O` [Compound 1016] ({CH2CO}-FYDWV[Bip]R[NMeA][dA]RLVSCG-NH2; thioether N-14), the IC50 was found to be 0.13 µM.

Take `CC(C)C[C@H]1NC(=O)[C@H](C)N(C)C(=O)[C@H](CCC(=O)O)NC(=O)[C@H](Cc2ccc(-c3ccccc3)cc2)NC(=O)[C@H](C(C)C)NC(=O)[C@H](Cc2c[nH]c3ccccc23)NC(=O)[C@H](CC(=O)O)NC(=O)[C@H](Cc2ccc(O)cc2)NC(=O)[C@H](CCCCNC(=N)N)NC(=O)CSC[C@@H](C(=O)NCC(N)=O)NC(=O)[C@H](C(C)O)NC(=O)[C@H](C(C)C)NC(=O)[C@H](CC2CCCCC2)NC(=O)[C@H](CCN)NC1=O` (stereo partly drawn) [Compound 2094] ({CH2CO}-[hArg]YDWV[Bip]E[NMeA][dL][Dab][Cha]V[Thr(3ξ)]CG-NH2; thioether N-14): the IC50 stood at 0.02 µM. The figure for `CCCC[C@@H]1NC(=O)[C@H](CC(N)=O)NC(=O)[C@@H](C)NC(=O)[C@H](C)N(C)C(=O)[C@H](C(C)C)NC(=O)[C@H](Cc2ccc(-c3ccccc3)cc2)NC(=O)[C@H](CC(C)C)NC(=O)[C@H](Cc2c[nH]c3ccccc23)NC(=O)[C@H](CC(=O)O)NC(=O)[C@H](Cc2ccc(O)cc2)NC(=O)[C@H](Cc2ccccc2)NC(=O)CSC[C@@H](C(=O)N[C@@H](C)C(N)=O)NC(=O)[C@H]([C@@H](C)O)NC(=O)[C@H](CCCCN)NC1=O` [Compound 1790] ({CH2CO}-FYDWL[Bip]V[NMeA][dA]N[Nle]KTCA-NH2; thioether N-14) is 0.13 µM; for `CC(C)C[C@@H]1NC(=O)[C@H](CCCNC(=N)N)NC(=O)[C@@H](CC(C)C)NC(=O)[C@H](C)N(C)C(=O)[C@H](CCC(=O)O)NC(=O)[C@H](Cc2ccc(-c3ccccc3)cc2)NC(=O)[C@H](C(C)C)NC(=O)[C@H](Cc2c[nH]c3ccccc23)NC(=O)[C@H](CC(=O)O)NC(=O)[C@H](Cc2ccc(O)cc2)NC(=O)[C@H](Cc2ccccc2)NC(=O)CSC[C@@H](C(=O)N[C@@H](C)C(N)=O)NC(=O)[C@H]([C@@H](C)O)NC(=O)[C@H](C(C)C)NC1=O` [Compound 1141] ({CH2CO}-FYDWV[Bip]E[NMeA][dL]RLVTCA-NH2; thioether N-14) it is 0.04 µM; for `Cc1cccc(C[C@@H]2NC(=O)[C@H](CC(=O)O)NC(=O)[C@H](Cc3ccc(OCC(=O)O)cc3)NC(=O)[C@H](Cc3ccncc3)NC(=O)CSC[C@@H](C(=O)N[C@@H](CN)C(N)=O)NC(=O)[C@H](C(C)O)NC(=O)[C@H](C(C)(C)O)NC(=O)[C@H](CC3CCCCC3)NC(=O)[C@H](CCN)NC(=O)[C@@H](CC(C)C)NC(=O)[C@H](C)N(C)C(=O)[C@H](CCCNC(N)=O)NC(=O)[C@H](Cc3ccc(-c4ccccc4)cc3)NC(=O)[C@H](Cc3ccc(OCC(=O)O)cc3)NC2=O)c1` (stereo partly drawn) [Compound 2168] ({CH2CO}-[4Pal]Y(Carboxymethyl)D[Phe(3-Me)]Y(Carboxymethyl)[Bip][Cit][NMeA][dL][Dab][Cha][Val(3-OH)][Thr(3ξ)]C[Dap]-NH2; thioether N-14) it is 0.03 µM. To `CC(C)C[C@@H]1NC(=O)[C@H](CCCNC(=N)N)NC(=O)[C@@H](CC(C)C)NC(=O)[C@H](C)N(C)C(=O)[C@H](CCCNC(=N)N)NC(=O)[C@H](Cc2ccc(-c3ccccc3)cc2)NC(=O)[C@H](C(C)C)NC(=O)[C@H](Cc2c[nH]c3ccccc23)NC(=O)[C@H](CC(=O)O)NC(=O)[C@H](Cc2ccc(N)cc2)NC(=O)[C@H](Cc2ccccc2)NC(=O)CSC[C@@H](C(=O)N[C@@H](C)C(N)=O)NC(=O)[C@H]([C@@H](C)O)NC(=O)[C@H](C(C)C)NC1=O` [Compound 1082] ({CH2CO}-F[Phe(4-NH2)]DWV[Bip]R[NMeA][dL]RLVTCA-NH2; thioether N-14) belongs 0.04 µM. To `CC(C)C[C@@H]1NC(=O)[C@H](Cc2c[nH]c3ccccc23)NC(=O)[C@H](CC(=O)O)NC(=O)[C@H](Cc2ccc(O)cc2)NC(=O)[C@H](Cc2ccccc2)NC(=O)CSC[C@@H](C(=O)N[C@@H](C)C(N)=O)NC(=O)[C@H](CO)NC(=O)[C@H](C(C)C)NC(=O)[C@H](CC(C)C)NC(=O)[C@H](CC(N)=O)NC(=O)[C@@H](C)NC(=O)[C@H](C)N(C)C(=O)[C@H](CCC(=O)O)NC(=O)[C@H](Cc2ccc(-c3ccccc3)cc2)NC1=O` [Compound 1768] ({CH2CO}-FYDWL[Bip]E[NMeA][dA]NLVSCA-NH2; thioether N-14) belongs 0.04 µM. For `CC[C@H](C)[C@@H]1NC(=O)[C@H](Cc2ccc(-c3ccccc3)cc2)NC(=O)[C@H](C(C)C)NC(=O)[C@H](Cc2c[nH]c3ccccc23)NC(=O)[C@H](CC(=O)O)NC(=O)[C@H](Cc2ccc(O)cc2)NC(=O)[C@H](Cc2ccccc2)NC(=O)CSC[C@@H](C(=O)N[C@@H](C)C(N)=O)NC(=O)[C@H]([C@@H](C)O)NC(=O)[C@H](C(C)C)NC(=O)[C@H](CC(C)C)NC(=O)[C@H](CCCNC(=N)N)NC(=O)[C@@H](CC(C)C)NC(=O)[C@H](C)N(C)C1=O` [Compound 1491] ({CH2CO}-FYDWV[Bip]I[NMeA][dL]RLVTCA-NH2; thioether N-14), the IC50 was found to be 0.09 µM. Consider `CC(C)C[C@@H]1NC(=O)[C@H](Cc2c[nH]c3ccccc23)NC(=O)[C@H](CC(=O)O)NC(=O)[C@H](Cc2ccc(O)cc2)NC(=O)[C@H](Cc2ccccc2)NC(=O)CSC[C@@H](C(=O)N[C@@H](C)C(N)=O)NC(=O)[C@H](CO)NC(=O)[C@H](CCCN)NC(=O)[C@H](CC(C)C)NC(=O)[C@H](CC(N)=O)NC(=O)[C@@H](CC(C)C)NC(=O)[C@H](C)N(C)C(=O)[C@H](C(C)C)NC(=O)[C@H](Cc2ccc(-c3ccccc3)cc2)NC1=O` [Compound 1537] ({CH2CO}-FYDWL[Bip]V[NMeA][dL]NL[Orn]SCA-NH2; thioether N-14), for which the IC50 was found to be 0.02 µM. Consider `CC(C)C[C@@H]1NC(=O)[C@H](CCN)NC(=O)[C@@H](CC(C)C)NC(=O)[C@H](C)N(C)C(=O)[C@H](CCCNC(=N)N)NC(=O)[C@H](Cc2ccc(-c3ccccc3)cc2)NC(=O)[C@H](C(C)C)NC(=O)[C@H](Cc2c[nH]c3ccccc23)NC(=O)[C@H](CC(=O)O)NC(=O)[C@H](CCc2ccncc2)NC(=O)[C@H](CC(N)=O)NC(=O)CSC[C@@H](C(=O)N[C@@H](C)C(N)=O)NC(=O)[C@H]([C@@H](C)O)NC(=O)[C@H](C(C)C)NC1=O` [Compound 1352] ({CH2CO}-N[h4Pal]DWV[Bip]R[NMeA][dL][Dab]LVTCA-NH2; thioether N-14), for which the IC50 was 0.01 µM.

(Values after patent US20240409585A1, “MACROCYCLIC IMMUNOMODULATORS” (priority 2021, published 2024).)
